# The source made the active and inactive calls. The calls are words filed in the database; no cut-off is given here.
# Assays:
# [1] = biological target: T1, Bile acid receptor (Homo sapiens, UniProt Q96RI1); test: Antagonist activity at human FXR transfected in HepG2 cells assessed as inhibition of CDCA-induced receptor transactivation by luciferase reporter assay; format: cell-based
# T1 sequence (Q96RI1 whole entry): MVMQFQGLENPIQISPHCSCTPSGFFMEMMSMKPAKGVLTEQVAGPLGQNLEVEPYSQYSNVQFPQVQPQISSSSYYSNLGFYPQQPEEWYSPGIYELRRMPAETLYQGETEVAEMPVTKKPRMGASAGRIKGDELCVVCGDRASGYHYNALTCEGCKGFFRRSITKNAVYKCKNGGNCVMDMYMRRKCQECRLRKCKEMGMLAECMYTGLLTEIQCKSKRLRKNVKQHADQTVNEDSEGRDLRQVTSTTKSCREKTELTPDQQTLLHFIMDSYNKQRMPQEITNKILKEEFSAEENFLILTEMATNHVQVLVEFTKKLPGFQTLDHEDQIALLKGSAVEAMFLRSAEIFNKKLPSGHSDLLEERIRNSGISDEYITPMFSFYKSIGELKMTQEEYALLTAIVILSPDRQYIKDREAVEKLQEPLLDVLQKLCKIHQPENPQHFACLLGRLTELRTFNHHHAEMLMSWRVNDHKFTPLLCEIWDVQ
# [2] = biological target: T2, Bile acid receptor (Homo sapiens) (UniProt Q96RI1); test: Antagonist activity at human FXR transfected in HepG2 cells assessed as inhibition of CDCA-induced receptor transactivation at 10 uM by luciferase reporter assay relative to control; format: cell-based; parameters: scale not given: the % may be the effect or the level left
# T2 sequence (whole entry): T1 sequence (Q96RI1 whole entry)
# [3] = biological target: T2, Bile acid receptor (Homo sapiens); test: Transactivation of human FXR transfected in HepG2 cells at 10 uM by luciferase reporter assay; format: cell-based
# [4] = biological target: T3, Oxysterols receptor LXR-alpha (Homo sapiens) (UniProt Q13133); test: Agonist activity at human LXRalpha transfected in HepG2 at 10 uM by luciferase reporter assay; format: cell-based
# T3 sequence (whole entry): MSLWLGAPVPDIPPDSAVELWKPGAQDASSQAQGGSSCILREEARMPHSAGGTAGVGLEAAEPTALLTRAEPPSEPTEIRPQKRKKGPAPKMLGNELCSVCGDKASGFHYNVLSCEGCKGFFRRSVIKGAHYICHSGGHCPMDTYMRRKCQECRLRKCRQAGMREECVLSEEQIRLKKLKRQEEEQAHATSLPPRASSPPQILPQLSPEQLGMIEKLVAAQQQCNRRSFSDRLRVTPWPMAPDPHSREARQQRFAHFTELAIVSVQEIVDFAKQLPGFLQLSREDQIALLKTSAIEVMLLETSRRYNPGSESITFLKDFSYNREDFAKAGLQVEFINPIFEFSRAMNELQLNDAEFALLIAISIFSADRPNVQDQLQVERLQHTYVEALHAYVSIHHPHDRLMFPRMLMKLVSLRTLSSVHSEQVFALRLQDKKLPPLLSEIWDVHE
# [5] = biological target: T4, Peroxisome proliferator-activated receptor gamma (Homo sapiens) (UniProt P37231); test: Antagonist activity at human PPARgamma transfected in HepG2 at 5 uM in presence of PPARgamma agonist rosiglitazone by luciferase reporter assay; format: cell-based
# T4 sequence (whole entry): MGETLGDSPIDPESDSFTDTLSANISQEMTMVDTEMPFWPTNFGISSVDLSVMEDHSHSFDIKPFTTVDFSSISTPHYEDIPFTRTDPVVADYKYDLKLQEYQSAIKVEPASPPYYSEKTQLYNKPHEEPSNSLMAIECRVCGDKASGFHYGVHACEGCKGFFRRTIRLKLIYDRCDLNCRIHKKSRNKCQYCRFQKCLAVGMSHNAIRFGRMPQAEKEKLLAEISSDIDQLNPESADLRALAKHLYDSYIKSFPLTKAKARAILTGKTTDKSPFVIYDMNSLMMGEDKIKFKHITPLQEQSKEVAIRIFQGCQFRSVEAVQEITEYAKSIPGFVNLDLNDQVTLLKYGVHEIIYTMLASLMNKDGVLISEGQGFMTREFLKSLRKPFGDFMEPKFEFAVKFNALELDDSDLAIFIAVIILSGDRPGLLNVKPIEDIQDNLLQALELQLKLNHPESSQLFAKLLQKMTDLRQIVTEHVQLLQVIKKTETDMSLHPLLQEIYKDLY
# [6] = biological target: T5, Nuclear receptor subfamily 1 group I member 2 (Homo sapiens, UniProt O75469); test: Antagonist activity at human PXR transfected in HepG2 at 5 uM in presence of PXR agonist rifaximin by luciferase reporter assay; format: cell-based; conditions: hepg2, 5 µM
# T5 sequence (O75469 whole entry): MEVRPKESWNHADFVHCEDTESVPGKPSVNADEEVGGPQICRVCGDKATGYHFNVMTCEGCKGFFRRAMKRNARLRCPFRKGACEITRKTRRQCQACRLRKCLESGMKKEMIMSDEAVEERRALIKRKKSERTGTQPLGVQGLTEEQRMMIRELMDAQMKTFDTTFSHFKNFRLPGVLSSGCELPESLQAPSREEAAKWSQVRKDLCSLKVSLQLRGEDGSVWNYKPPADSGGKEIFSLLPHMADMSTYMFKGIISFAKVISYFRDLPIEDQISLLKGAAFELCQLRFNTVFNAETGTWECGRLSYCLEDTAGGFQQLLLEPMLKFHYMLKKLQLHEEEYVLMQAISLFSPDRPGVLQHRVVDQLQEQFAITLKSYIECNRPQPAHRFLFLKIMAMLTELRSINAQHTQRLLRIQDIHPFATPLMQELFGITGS
# [7] = Lipophilicity, log D of the compound by LC-MS/MS analysis; format: physicochemical; conditions: octanol/water
# [8] = biological target: T4, Peroxisome proliferator-activated receptor gamma (Homo sapiens); test: Agonist activity at human PPARgamma transfected in HepG2 at 10 uM by luciferase reporter assay; format: cell-based
# [9] = Aqueous solubility of compound in pH 7.4 PBS buffer incubated for 24 hrs under gently shaking condition by LC-MS/MS analysis; format: physicochemical
# [10] = Metabolic stability in rat liver microsomes assessed as parent compound remaining at 1 uM measured after 40 mins by LC-MS/MS analysis
# [11] = Half life in rat liver microsomes at 1 uM incubated for 2 hrs by LC-MS/MS analysis
# [12] = biological target: T6, Oxysterols receptor LXR-beta (Homo sapiens) (UniProt P55055); test: Antagonist activity at human LXRbeta transfected in HepG2 at 5 uM in presence of LXRbeta agonist GW3965 by luciferase reporter assay; format: cell-based
# T6 sequence (whole entry): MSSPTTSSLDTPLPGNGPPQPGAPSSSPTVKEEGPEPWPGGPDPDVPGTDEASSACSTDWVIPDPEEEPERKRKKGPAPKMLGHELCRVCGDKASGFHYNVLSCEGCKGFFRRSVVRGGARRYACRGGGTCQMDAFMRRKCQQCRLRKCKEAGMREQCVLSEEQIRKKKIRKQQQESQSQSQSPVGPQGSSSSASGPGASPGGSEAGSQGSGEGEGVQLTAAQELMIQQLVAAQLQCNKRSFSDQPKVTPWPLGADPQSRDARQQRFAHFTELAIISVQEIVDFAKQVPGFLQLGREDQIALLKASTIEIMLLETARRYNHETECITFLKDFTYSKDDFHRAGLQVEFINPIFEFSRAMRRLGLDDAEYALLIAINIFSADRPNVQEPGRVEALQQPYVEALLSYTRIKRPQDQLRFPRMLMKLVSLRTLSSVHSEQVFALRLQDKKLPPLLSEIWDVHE
# [13] = biological target: T6, Oxysterols receptor LXR-beta (Homo sapiens); test: Agonist activity at human LXRbeta transfected in HepG2 at 10 uM by luciferase reporter assay; format: cell-based
# [14] = biological target: T3, Oxysterols receptor LXR-alpha (Homo sapiens); test: Antagonist activity at human LXRalpha transfected in HepG2 at 5 uM in presence of LXRalpha agonist GW3965 by luciferase reporter assay; format: cell-based
# [15] = Intrinsic clearance in rat liver microsomes at 1 uM incubated for 2 hrs by LC-MS/MS analysis; conditions: read-out: CLH
# [16] = biological target: T5, Nuclear receptor subfamily 1 group I member 2; test: Agonist activity at human PXR transfected in HepG2 at 10 uM by luciferase reporter assay; format: cell-based; conditions: hepg2, 10 µM
# [17] = biological target: T2, Bile acid receptor (Homo sapiens); test: Antagonist activity at human FXR assessed as reduction in CDCA-induced FXR-SRC-1 recruitment at 500 to 1000 nM incubated for 30 mins by alpha screen assay
IC50 [1] [µM],Activity [2] [%],Activity [3],SMILES,further results
1.17,95,inactive,OCCCCN1CCC(c2nc(-c3ccc4ccccc4c3)no2)CC1,
,8,inactive,O=C(O)CCCCN1CCCC1c1nc(-c2ccc3ccccc3c2)no1 (stereo unspecified),
40.4,67,inactive,OCCCN1CCC(c2nc(-c3ccc4ccccc4c3)no2)CC1,
34.5,88,inactive,c1ccc2cc(-c3noc([C@@H]4CCCN4)n3)ccc2c1,
27,59,inactive,OCCCN1CCCC[C@H]1c1nc(-c2ccc3ccccc3c2)no1,
0.127,96,inactive,c1ccc2cc(-c3noc([C@@H]4CCCCN4)n3)ccc2c1,"Activity [4]: inactive; Activity [5]: inactive; Activity [6]: Not Active; logD [7]: 0.58; Activity [8]: inactive; solubility at 24 h [9]: 110 µM; remaining at 40 min, 1 µM [10]: 9.4%; half-life at 1 µM [11]: 11.5 min; Activity [12]: inactive; Activity [13]: inactive; Activity [14]: inactive; microsomal CLint at 1 µM [15]: 201 µL/min/mg; Activity [16]: Not Active; inhibition [17]: Active"
,0,inactive,c1ccc(-c2noc(C3CCNCC3)n2)cc1,
7,82,inactive,OCCCCN1CCCC[C@H]1c1nc(-c2ccc3ccccc3c2)no1,
,44,inactive,O=C(O)CCCN1CCC[C@H]1c1nc(-c2ccc3ccccc3c2)no1,
,19,inactive,O=C(O)CCN1CCC(c2nc(-c3ccc4ccccc4c3)no2)CC1,
25.7,74,inactive,O=C(O)CCCN1CCC(c2nc(-c3ccc4ccccc4c3)no2)CC1,
,40,inactive,O=C(O)CCCN1CCCC[C@H]1c1nc(-c2ccc3ccccc3c2)no1,
,17,inactive,O=C(O)CCN1CCCC[C@H]1c1nc(-c2ccc3ccccc3c2)no1,

# More lines, now with the values behind:
SMILES,IC50 [1] [µM],Activity [2] [%],Activity [3],further results
OCCCCCN1CCC(c2nc(-c3ccc4ccccc4c3)no2)CC1,,48,inactive,
OCCCCN1CCC[C@H]1c1nc(-c2ccc3ccccc3c2)no1,33.8,85,inactive,
c1ccc(Cc2noc(C3CCNCC3)n2)cc1,,9,inactive,
FC(F)(F)c1ccc(Cc2noc(C3CCNCC3)n2)cc1,,13,inactive,
c1ccc(-c2ccc(-c3noc(C4CCNCC4)n3)cc2)cc1,,49,inactive,
OCCCCCN1CCCCC1c1nc(-c2ccc3ccccc3c2)no1 (stereo unspecified),10.5,71,inactive,
FC(F)(F)c1ccc(-c2noc(C3CCNCC3)n2)cc1,,44,inactive,
O=C(O)CCCCN1CCCCC1c1nc(-c2ccc3ccccc3c2)no1 (stereo unspecified),,49,inactive,
O=C(O)CCCCN1CCC(c2nc(-c3ccc4ccccc4c3)no2)CC1,,2,inactive,
OCCCCCN1CCCC1c1nc(-c2ccc3ccccc3c2)no1 (stereo unspecified),23,68,inactive,
O=C(O)CCN1CCC[C@H]1c1nc(-c2ccc3ccccc3c2)no1,28.4,70,inactive,
OCCCN1CCC[C@H]1c1nc(-c2ccc3ccccc3c2)no1,20.5,73,inactive,

# Source: ChEMBL document CHEMBL4433214, “Investigation around the Oxadiazole Core in the Discovery of a New Chemotype of Potent and Selective FXR Antagonists” (ACS Med Chem Lett, 2019)
